{"source": "patent US4778785A", "about": "“Pharmaceutical composition for retarding and reducing cachexia” (Kaken Pharmaceutical Co., Ltd., priority 1985, dated 1988)", "key": {"rats": {"test_system": "rats", "test": "acute toxicity (LD50) by subcutaneous injection of rats", "details": "acute toxicity, rats, subcutaneous injection"}, "in vivo": {"test": "in vivo", "details": "rat, sc"}, "[1]": {"test": "Clinical Example 1: treatment of cachexia patient with 4,6-O-benzylidene-D-glucose", "assay_type": "in vivo, human", "details": "1,200 mg i.v. once a day; for body weight: before: 29 kg", "from_the_text": "Patient\nDiagnosis: Cancer in right ovary, Cachexia caused by metastasis of cancer to peritoneum and liver\nAlthough the adbomen of the patient was opened by an abdominal operation, it was impossible to remove the diseased portions and thus the abdomen was closed without extracting the affected portions. The patient could eat very little and thus was supplied with nutritive substances by instillations every day. The body weight of the patient decreased to 29 kg, and they were confined to bed."}, "[2]": {"test": "finding of effectiveness in retarding and reducing cachexia", "assay_type": "in vivo", "details": "benzaldehyde and/or 4,6-O-benzylidene-D-glucose"}, "[3]": {"details": "Japanese Patent Laid-Open 108027/1977 and 70428/1979; cited from earlier work"}, "[4]": {"test": "prior chemotherapy of the patient of Clinical Example 1, adverse reactions", "details": "chemotherapy with mitomycin, 5-fluorouracil and cytarabine together, stopped after three weeks", "quoted_text": "(§1) Chemotherapy was tried to administering mitomycin, 5-fluorouracil and cytarabine. […] For these reasons, chemotherapy was stopped after three weeks."}, "[5]": {"details": "human, in vivo", "quoted_text": "as §1"}, "[6]": {"test": "acute toxicity (LD50) by subcutaneous injection of rats", "details": "rat, in vivo, sc"}, "[7]": {"test": "Clinical Example 3: treatment of cachexia patient with benzaldehyde", "assay_type": "in vivo, human", "details": "for Precipitation of Blood: before dosage 78; for Glutamic Acid Pyruvic Acid Transaminase (GPT): before dosage 98; for Glutamic Acid Oxaloacetic Acid Transaminase (GOT): before dosage 120; for α-fetoprotein (AFP): before dosage 20,000", "from_the_text": "Patient\nDiagnosis: Symptoms of cachexia due to lung cancer (the type of cancerous tissue not being specified)\nThrough CT scan and echo examinations, a total of four tumors were observed, one having the dimensions of 7 cm×7 cm and each of the other three metastasized tumors having a diameter of about 1 cm. Severe symptoms due to cachexia were found.\nFirst Day: The symptoms due to cachexia were growing worse."}, "[8]": {"details": "25 mg tablets, 5 tablets 4 times a day, three months"}}, "note": "Where two headings read alike, the source gives them in different places."}
{"smiles": "OC1O[C@@H]2COC(c3ccccc3)O[C@H]2[C@H](O)[C@H]1O", "note": "(stereo partly drawn) [4,6-O-Benzylidene-D-glucose, 4,6-O-benzylidene-D-glucose]", "values": [{"measurement": "toxicity", "setting": "rats", "value": "extremely low toxicities"}, {"measurement": "LD50", "setting": "in vivo", "value": 4000, "unit": "mg/kg"}, {"measurement": "nausea", "setting": "[1]; eighth day", "value": "Nausea disappeared"}, {"measurement": "food intake", "setting": "[1]; eighth day, before: could eat very little", "value": "the patient could take meals"}, {"measurement": "body weight", "setting": "[1]; eighty-fifth day", "value": 35, "unit": "kg"}, {"measurement": "cancer in other portions", "setting": "[1]; fifty-sixth day", "value": "No change was observed"}, {"measurement": "cancer of the liver (left)", "setting": "[1]; fifty-sixth day", "value": "slightly reduced"}, {"measurement": "capability of work", "setting": "[1]; fifty-sixth day", "value": "capable of doing light work"}, {"measurement": "symptoms of cachexia", "setting": "[1]; fifty-sixth day", "value": "disappeared completely"}, {"measurement": "body weight", "setting": "[1]; fifty-sixth day", "value": 31, "unit": "kg"}, {"measurement": "mobility", "setting": "[1]; nineteenth day, before: confined to bed", "value": "The patient could sit up in bed"}, {"measurement": "cachexia symptoms", "setting": "[1]; thirtieth day", "value": "cachexia symptoms were alleviated"}, {"measurement": "mobility", "setting": "[1]; thirtieth day", "value": "the patient could walk"}, {"measurement": "dimensions of the tumor", "setting": "[1]; thirtieth day, CT scan", "value": "the dimensions of the tumor had not been reduced"}, {"measurement": "effect on cachexia", "setting": "[2]", "value": "effective in retarding and reducing cachexia"}, {"measurement": "carcinostatic function", "setting": "[3]", "value": "exhibit carcinostatic functions"}]}
{"smiles": "O=c1[nH]cc(F)c(=O)[nH]1", "note": "[5-fluorouracil]", "values": [{"measurement": "cachexia under chemotherapy", "setting": "[4]", "value": "the cachexia grew worse and worse"}, {"measurement": "adverse reactions", "setting": "[5]", "value": "intensive adverse reactions, such as anorexia, nausea and Leukopenia"}]}
{"smiles": "O=Cc1ccccc1", "note": "[Benzaldehyde]", "values": [{"measurement": "toxicity", "setting": "rats", "value": "extremely low toxicities"}, {"measurement": "LD50", "setting": "[6]", "value": 5000, "unit": "mg/kg"}, {"measurement": "appetite", "setting": "[7]; 25 mg benzaldehyde tablets, 5 tablets 4 times a day, one month", "value": "the patient recovered their appetite"}, {"measurement": "values of AFP, GOT and GPT", "setting": "[7]; 25 mg tablets, 5 tablets 4 times a day, monthly", "value": "lowered favorably every month unitl they reached normal levels"}, {"measurement": "body weight", "setting": "[7]; [8]", "value": "began to increase"}, {"measurement": "symptoms due to cachexia", "setting": "[7]; [8]", "value": "Almost all of the symptoms due to cachexia disappeared"}, {"measurement": "body weight", "setting": "[7]; one month dosage, before dosage 46", "value": 46, "unit": "kg"}, {"measurement": "Precipitation of Blood", "setting": "[7]; one month dosage", "value": 60}, {"measurement": "Glutamic Acid Pyruvic Acid Transaminase (GPT)", "setting": "[7]; one month dosage", "value": 70}, {"measurement": "Glutamic Acid Oxaloacetic Acid Transaminase (GOT)", "setting": "[7]; one month dosage", "value": 87}, {"measurement": "α-fetoprotein (AFP)", "setting": "[7]; one month dosage", "value": "15,000 ng/ml"}, {"measurement": "body weight", "setting": "[7]; three month dosage, before dosage 46", "value": 47, "unit": "kg"}, {"measurement": "Precipitation of Blood", "setting": "[7]; three month dosage", "value": 40}, {"measurement": "Glutamic Acid Pyruvic Acid Transaminase (GPT)", "setting": "[7]; three month dosage", "value": 35}, {"measurement": "Glutamic Acid Oxaloacetic Acid Transaminase (GOT)", "setting": "[7]; three month dosage", "value": 38}, {"measurement": "α-fetoprotein (AFP)", "setting": "[7]; three month dosage", "value": "2,200 ng/ml"}, {"measurement": "body weight", "setting": "[7]; two month dosage, before dosage 46", "value": 46, "unit": "kg"}, {"measurement": "Precipitation of Blood", "setting": "[7]; two month dosage", "value": 48}, {"measurement": "Glutamic Acid Pyruvic Acid Transaminase (GPT)", "setting": "[7]; two month dosage", "value": 40}, {"measurement": "Glutamic Acid Oxaloacetic Acid Transaminase (GOT)", "setting": "[7]; two month dosage", "value": 72}, {"measurement": "α-fetoprotein (AFP)", "setting": "[7]; two month dosage", "value": "7,700 ng/ml"}, {"measurement": "effect on cachexia", "setting": "[2]", "value": "effective in retarding and reducing cachexia"}, {"measurement": "carcinostatic function", "setting": "[3]", "value": "exhibit carcinostatic functions"}]}
{"smiles": "Nc1ccn([C@@H]2O[C@H](CO)[C@@H](O)[C@@H]2O)c(=O)n1", "note": "[cytarabine]", "values": [{"measurement": "adverse reactions", "setting": "[4]", "value": "intensive adverse reactions, such as anorexia, nausea and Leukopenia"}, {"measurement": "cachexia under chemotherapy", "setting": "[4]", "value": "the cachexia grew worse and worse"}]}
{"smiles": "CO[C@@]12[C@H](COC(N)=O)C3=C(C(=O)C(C)=C(N)C3=O)N1C[C@@H]1N[C@@H]12", "note": "[mitomycin]", "values": [{"measurement": "adverse reactions", "setting": "[4]", "value": "intensive adverse reactions, such as anorexia, nausea and Leukopenia"}, {"measurement": "cachexia under chemotherapy", "setting": "[4]", "value": "the cachexia grew worse and worse"}]}
